Source: patent US20250122160A1, “PROTEIN TYROSINE PHOSPHATASE INHIBITORS AND METHODS OF USE THEREOF” (Calico Life Sciences LLC, priority 0001, published 2025)

Columns and labels:
[1] = target: T1, His tagged PTPN2 (TC45) protein (Homo sapiens, UniProt P17706); experiment: Mobility shift assay (MSA) to determine potency of PTPN2 inhibitors; format: biochemical; settings: 0.5 nM enzyme, 2 μM substrate
T1 construct: made in house
T1 sequence (P17706 with tags, fused parts or gaps isoform P17706-2): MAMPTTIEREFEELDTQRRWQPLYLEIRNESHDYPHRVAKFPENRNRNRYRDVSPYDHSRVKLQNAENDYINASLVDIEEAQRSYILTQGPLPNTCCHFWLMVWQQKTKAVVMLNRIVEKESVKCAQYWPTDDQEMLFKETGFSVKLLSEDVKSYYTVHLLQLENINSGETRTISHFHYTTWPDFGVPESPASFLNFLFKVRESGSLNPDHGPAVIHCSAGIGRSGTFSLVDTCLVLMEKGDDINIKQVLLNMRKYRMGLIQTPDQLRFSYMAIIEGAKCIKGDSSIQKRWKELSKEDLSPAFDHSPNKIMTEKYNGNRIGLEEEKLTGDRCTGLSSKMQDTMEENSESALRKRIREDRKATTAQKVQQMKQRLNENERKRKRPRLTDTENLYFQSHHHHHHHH
Procedure, shortened: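 His-tagged human PTPN2 (TC45), 0.5 nM, preincubated 10 min at room temperature with compound (12-point, 1:3 dilutions) in HEPES pH 7.5 buffer with EGTA, EDTA, Tween 20 and DTT. Then 2 μM OG488-labelled phospho-insulin-receptor peptide was added for 10 min and quenched. % conversion was read by mobility shift, and IC50 came from % inhibition.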

[2] = target: T2, His tagged full-length PTPN1 protein (Homo sapiens, UniProt P18031); experiment: Mobility shift assay (MSA) to determine potency of PTPN1 inhibitors; format: biochemical; settings: 0.5 nM enzyme, 2 μM substrate
T2 construct: made in house
T2 sequence (P18031 with tags, fused parts or gaps): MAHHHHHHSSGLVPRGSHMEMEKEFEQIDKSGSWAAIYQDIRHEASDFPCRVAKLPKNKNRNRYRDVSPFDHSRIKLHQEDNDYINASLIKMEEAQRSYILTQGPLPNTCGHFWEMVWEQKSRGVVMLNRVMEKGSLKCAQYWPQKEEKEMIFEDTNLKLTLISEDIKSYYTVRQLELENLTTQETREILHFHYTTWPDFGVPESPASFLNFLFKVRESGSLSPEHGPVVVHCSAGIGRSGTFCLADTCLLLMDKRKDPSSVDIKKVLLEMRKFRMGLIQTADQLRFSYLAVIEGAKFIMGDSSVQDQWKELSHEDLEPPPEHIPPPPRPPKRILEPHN
Procedure, shortened: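 Readout is microfluidic mobility shift (ex 488/em 530 nm) of a 2 μM OG488-labelled pTyr insulin-receptor peptide after a 10 min room-temperature reaction, following 10 min enzyme–compound preincubation. Enzyme: 0.5 nM full-length His-tagged PTPN1 in HEPES pH 7.5 buffer. IC50 fitted from % inhibition at 12 concentrations (1:3 steps).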

SMILES | IC50 [2] | IC50 [1]
CC1=C(CCN2CCc3cc(O)c(N4CC(=O)NS4(=O)=O)c(F)c3C2)C(C)(C)CCC1 [Compound 297] | 1 to 10 nM | < 1 nM
CC(C)(C)OC(=O)N[C@H]1CC[C@H](CCN2CCc3cc(O)c(N4CC(=O)NS4(=O)=O)c(F)c3C2)CC1 [Compound 300] | 1 to 10 nM | 1 to 10 nM
O=C1CN(c2c(O)cc3c(c2F)CN(CCCc2ccccc2F)CC3)S(=O)(=O)N1 [Compound 303] | 10 to 100 nM | 1 to 10 nM
Cc1noc(C)c1CCN1Cc2c(cc(O)c(N3CC(=O)NS3(=O)=O)c2F)C(F)(F)C1 [Compound 306] | > 100 nM | > 100 nM
O=C1CN(c2c(O)cc3c(c2F)CN(C(=O)NCC2CCCCC2)CC3)S(=O)(=O)N1 [Compound 321] | 1 to 10 nM | 1 to 10 nM
CC(=O)NC1CCc2cc(O)c(N3CC(=O)NS3(=O)=O)c(F)c2C1 (centres unmarked) [Compound 322] | 10 to 100 nM | 10 to 100 nM
O=C1CC[C@@H](CN2CCc3cc(O)c(N4CC(=O)NS4(=O)=O)c(F)c3C2)N1 [Compound 324] | 10 to 100 nM | 1 to 10 nM
N[C@@H]1COc2cc(O)c(N3CC(=O)NS3(=O)=O)c(F)c2C1 [Compound 326, 5-[(3S)-3-amino-5-fluoro-7-hydroxy-3,4-dihydro-2H-1-benzopyran-6-yl]-1λ^6,2,5-thiadiazolidine-1,1,3-trione] | 10 to 100 nM | 10 to 100 nM
[2H]C1([2H])C(=O)NS(=O)(=O)N1c1c(O)cc2c(c1F)C[C@H](NCCC(C)C)CC2 [Compound 327, 5-{(7R)-1-fluoro-3-hydroxy-7-[(3-methylbutyl)amino]-5,6,7,8-tetrahydronaphthalen-2-yl}(4,4-^2H2)-1λ^6,2,5-thiadiazolidine-1,1,3-trione] | 1 to 10 nM | < 1 nM
CC(C)CNS(=O)(=O)N1CCc2cc(O)c(N3CC(=O)NS3(=O)=O)c(F)c2C1 [Compound 328, 8-fluoro-6-hydroxy-N-(2-methylpropyl)-7-(1,1,4-trioxo-1λ^6,2,5-thiadiazolidin-2-yl)-3,4-dihydroisoquinoline-2(1H)-sulfonamide] | 10 to 100 nM | 10 to 100 nM
CC(C)CCN[C@@H]1CCc2c(F)c(O)c(N3CC(=O)NS3(=O)=O)c(F)c2C1 [Compound 331, 5-{(7R)-1,4-difluoro-3-hydroxy-7-[(3-methylbutyl)amino]-5,6,7,8-tetrahydronaphthalen-2-yl}-1λ^6,2,5-thiadiazolidine-1,1,3-trione] | 1 to 10 nM | 1 to 10 nM
CC(C)C(F)CNC1CCc2cc(O)c(N3CC(=O)NS3(=O)=O)c(F)c2C1 (centres unmarked) [Compound 334, 5-{1-fluoro-7-[(2-fluoro-3-methylbutyl)amino]-3-hydroxy-5,6,7,8-tetrahydronaphthalen-2-yl}-1λ^6,2,5-thiadiazolidine-1,1,3-trione] | 1 to 10 nM | 1 to 10 nM
O=C1CN(c2c(O)cc3c(c2F)CC(O)CC3)S(=O)(=O)N1 (centres unmarked) [Compound 335, 5-(1-fluoro-3,7-dihydroxy-5,6,7,8-tetrahydronaphthalen-2-yl)-1λ^6,2,5-thiadiazolidine-1,1,3-trione] | 10 to 100 nM | 10 to 100 nM
CC(C)CNCC1(O)CCc2cc(O)c(N3CC(=O)NS3(=O)=O)c(F)c2C1 (centres unmarked) [Compound 339, 5-(1-fluoro-3,7-dihydroxy-7-{[(2-methylpropyl)amino]methyl}-5,6,7,8-tetrahydronaphthalen-2-yl)-1λ^6,2,5-thiadiazolidine-1,1,3-trione] | 10 to 100 nM | 10 to 100 nM
CC1(CN[C@@H]2CCc3cc(O)c(N4CC(=O)NS4(=O)=O)c(F)c3C2)COC1 [Compound 344, 5-[(7R)-1-fluoro-3-hydroxy-7-{[(3-methyloxetan-3-yl)methyl]amino}-5,6,7,8-tetrahydronaphthalen-2-yl]-1λ^6,2,5-thiadiazolidine-1,1,3-trione] | 10 to 100 nM | 1 to 10 nM
Cn1ccc(CN[C@@H]2CCc3cc(O)c(N4CC(=O)NS4(=O)=O)c(F)c3C2)c1 [Compound 346, 5-[(7R)-1-fluoro-3-hydroxy-7-{[(1-methyl-1H-pyrrol-3-yl)methyl]amino}-5,6,7,8-tetrahydronaphthalen-2-yl]-1λ^6,2,5-thiadiazolidine-1,1,3-trione] | 10 to 100 nM | 1 to 10 nM

Second part, led by results:

IC50 [2] | SMILES | IC50 [1]
10 to 100 nM | CCCCCN1CCc2cc(O)c(N3CC(=O)NS3(=O)=O)c(F)c2C1 [Compound 298] | 10 to 100 nM
10 to 100 nM | O=C1CN(c2c(O)cc3c(c2F)CN(CCCc2ccc(F)cc2)CC3)S(=O)(=O)N1 [Compound 299] | 1 to 10 nM
> 100 nM | CC(C)(C)c1ccc(CCCN2CCc3cc(O)c(N4CC(=O)NS4(=O)=O)c(F)c3C2)cc1 [Compound 301] | 10 to 100 nM
> 100 nM | Cc1n[nH]c(C)c1CCN1Cc2c(cc(O)c(N3CC(=O)NS3(=O)=O)c2F)C(F)(F)C1 [Compound 320] | > 100 nM
1 to 10 nM | CC(C)CCC[C@H]1Cc2c(cc(O)c(N3CC(=O)NS3(=O)=O)c2F)CN1 [Compound 325] | 1 to 10 nM
10 to 100 nM | CC(C)CNC(=N)N1CCc2cc(O)c(N3CC(=O)NS3(=O)=O)c(F)c2C1 [Compound 329, 8-fluoro-6-hydroxy-N-(2-methylpropyl)-7-(1,1,4-trioxo-1λ^6,2,5-thiadiazolidin-2-yl)-3,4-dihydroisoquinoline-2(1H)-carboximidamide] | 10 to 100 nM
> 100 nM | O=C1CN(c2c(O)cc3c(c2F)CC(NCCC2COC2)CC3)S(=O)(=O)N1 (centres unmarked) [Compound 330, 5-(1-fluoro-3-hydroxy-7-{[2-(oxetan-3-yl)ethyl]amino}-5,6,7,8-tetrahydronaphthalen-2-yl)-1λ^6,2,5-thiadiazolidine-1,1,3-trione] | > 100 nM
10 to 100 nM | CC(C)CCS(=O)(=O)NC1CCc2cc(O)c(N3CC(=O)NS3(=O)=O)c(F)c2C1 (centres unmarked) [Compound 332, N-[8-fluoro-6-hydroxy-7-(1,1,4-trioxo-1λ^6,2,5-thiadiazolidin-2-yl)-1,2,3,4-tetrahydronaphthalen-2-yl]-3-methylbutane-1-sulfonamide] | 10 to 100 nM
10 to 100 nM | CC(C)CNCC1CCc2cc(O)c(N3CC(=O)NS3(=O)=O)c(F)c2C1 (centres unmarked) [Compound 333, 5-(1-fluoro-3-hydroxy-7-{[(2-methylpropyl)amino]methyl}-5,6,7,8-tetrahydronaphthalen-2-yl)-1λ^6,2,5-thiadiazolidine-1,1,3-trione] | 10 to 100 nM
1 to 10 nM | [2H]C([2H])([2H])C([2H])([2H])C([2H])([2H])C([2H])([2H])NC1CCc2cc(O)c(N3CC(=O)NS3(=O)=O)c(F)c2C1 (centres unmarked) [Compound 336, 5-{7-[(^2H9)butylamino]-1-fluoro-3-hydroxy-5,6,7,8-tetrahydronaphthalen-2-yl}-1λ^6,2,5-thiadiazolidine-1,1,3-trione] | 1 to 10 nM
10 to 100 nM | NCC1(O)CCc2cc(O)c(N3CC(=O)NS3(=O)=O)c(F)c2C1 (centres unmarked) [Compound 337, 5-[7-(aminomethyl)-1-fluoro-3,7-dihydroxy-5,6,7,8-tetrahydronaphthalen-2-yl]-1λ^6,2,5-thiadiazolidine-1,1,3-trione] | 10 to 100 nM
1 to 10 nM | O=C1CN(c2c(O)cc3c(c2F)C[C@H](NCCC2(CO)CCC2)CC3)S(=O)(=O)N1 [Compound 338, 5-[(7R)-1-fluoro-3-hydroxy-7-({2-[1-(hydroxymethyl)cyclobutyl]ethyl}amino)-5,6,7,8-tetrahydronaphthalen-2-yl]-1λ^6,2,5-thiadiazolidine-1,1,3-trione] | < 1 nM
1 to 10 nM | [2H]C1([2H])Cc2cc(O)c(N3CC(=O)NS3(=O)=O)c(F)c2C([2H])([2H])C1([2H])NCCC(C)C (centres unmarked) [Compound 340, 5-{1-fluoro-3-hydroxy-7-[(3-methylbutyl)amino](6,6,7,8,8-^2H5)-5,6,7,8-tetrahydronaphthalen-2-yl}-1λ^6,2,5-thiadiazolidine-1,1,3-trione] | < 1 nM
10 to 100 nM | CC(C)(C)OC(=O)N[C@@H]1CCc2cc(O)c(N3CC(=O)NS3(=O)=O)c(F)c2C1 [Compound 341, tert-butyl [(2R)-8-fluoro-6-hydroxy-7-(1,1,4-trioxo-1λ^6,2,5-thiadiazolidin-2-yl)-1,2,3,4-tetrahydronaphthalen-2-yl]carbamate] | 10 to 100 nM
10 to 100 nM | Cn1cccc1CN[C@@H]1CCc2cc(O)c(N3CC(=O)NS3(=O)=O)c(F)c2C1 [Compound 345, 5-[(7R)-1-fluoro-3-hydroxy-7-{[(1-methyl-1H-pyrrol-2-yl)methyl]amino}-5,6,7,8-tetrahydronaphthalen-2-yl]-1λ^6,2,5-thiadiazolidine-1,1,3-trione] | 10 to 100 nM
